One experiment addresses T1, ctRAGE (Homo sapiens, UniProt Q15109).
T1 construct: The cytoplasmic domain of RAGE, C terminal RAGE or ctRAGE (RAGE tail)
T1 sequence (Q15109 364-404 limits assumed): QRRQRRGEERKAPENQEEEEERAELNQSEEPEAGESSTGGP
Nature of the experiment: Fluorescence binding titration assay (native tryptophan fluorescence). The note with it: 20 nM ctRAGE, 10 mM phosphate buffer pH 7.0, 5% DMSO. The procedure: Native tryptophan fluorescence experiments were conducted using a Horiba Jobin Yvon Fluorolog spectrofluorometer. 1 mM of a compound was dissolved in 10 mM phosphate buffer [pH 7.0] and 50% DMSO. 20 nM ctRAGE solution was individually titrated from 0.1 nM-100 μM with the compounds in 100 μL of 10 mM phosphate buffer [pH 7.0] and 5% DMSO. The excitation and emission wavelengths were 280 nm and 352 nm, respectively. Dissociation constants, Kd, were estimated from the changes in peak fluorescence intensities as a function of the free compound concentration by using Prism 6 software (GraphPad). Data were fit to the equation, (F−F0)/Fmax=[compound]/(Kd+[compound]) where F is the fluorescence intensity at a given compound concentration, F0 is the fluorescence intensity of the blank, and Fmax is the maximum fluorescence intensity.

Experiment [1] deals with Murine primary aortic smooth muscle cells (SMC). Nature of the experiment: Murine primary aortic smooth muscle cell (SMC) migration, wounding assay. To be noted: Mus musculus; inhibition of migration; compounds incubated 1.5 h, then CML-AGE (10 μg/ml) or PDGF-BB (10 ng/ml) for 4 h. In kind it is cell-based, mice. On the procedure: Murine SMCs were cultured from the aortas of 10-week old male mice as described in M. B. Manigrasso, J. Pan, V. Rai, J. Zhang, S. Reverdatto, N. Quadri, R. J. DeVita, R. Ramasamy, A. Shekhtman, A. M. Schmidt, Small Molecule Inhibition of Ligand-Stimulated RAGE-DIAPH1 Signal Transduction. Scientific reports 6, 22450 (2016). Wild-type murine aortic SMCs were isolated and used between passages 8 to 12. Migration in response to the RAGE ligand CML-AGE (CML, 10 μg/ml) or a general effector, not a RAGE ligand, PDGF-BB, 10 ng/ml (R&D systems) was assessed with a wounding assay as also described in M. B. Manigrasso, J. Pan, V. Rai, J. Zhang, S. Reverdatto, N. Quadri, R. J. DeVita, R. Ramasamy, A. Shekhtman, A. M. Schmidt, Small Molecule Inhibition of Ligand-Stimulated RAGE-DIAPH1 Signal Transduction. Scientific reports 6, 22450 (2016). Briefly, cells were grown to confluence in 24-well plates and starved overnight. The following morning, serum free media (SFM) was removed and compounds were added per dose response. Immediately following the addition of compounds, the monolayer was wounded using a p10 pipette tip. The compounds were allowed to incubate for 1.5 h. Following this incubation, all compounds were removed and fresh media containing RAGE ligand, CML-AGE (10 μg/ml), or general effector, PDGF-BB (10 ng/ml), was added for 4 h. Cells were maintained at 37° C. and 5% CO2. Images were taken at 4 h. Each image was measured, and an area ingrowth of effective migrating cells was calculated. Results are shown in FIGS. 12-20 and Table 2 below.

Another experiment has as its system ob ob mice. Nature of the experiment: Wound healing of full thickness excisional wounds in ob ob mice. The class given is in vivo. The note with it: male and female ob ob mice; 5 mg/kg twice daily topical, day 3 through day 10; days 14 and 21 post-surgery. On the procedure:
RAGE 406R was tested in male and female ob ob mice (model of obesity and type 2 diabetes) for potential benefits in wound healing. Full thickness excisional wounds were created on the backs of 8 week old ob ob mice, as described in Manigrasso et al., “Small-molecule antagonism of the interaction of the RAGE cytoplasmic domain with DIAPH1 reduces diabetic complications in mice,” Sci Transl Med. 13 (621):eabf7084 (2021). Beginning on day 3 after the surgery, mice received RAGE 406R (5 mg/kg) twice daily by topical administration under the Tegaderm through day 10 post-operatively. The wounds were photographed on days 0, 7, 14, and 21 and the % wound closure (compared to baseline) was calculated for each mouse. The Mean+/−Standard Error of the Mean is shown in FIGS. 23A-B along with representative images (FIGS. 23C-D).

Regarding `N#Cc1ccc2c(CN3CCOCC3)cc(-c3ccc(C4CCC(=O)N4)cc3)nc2c1` (racemic) [RAGE 406], the Kd on ctRAGE was found to be 3 nM. It took 28 nM to reach half-maximal inhibition in experiment [1] (IC50).
On to `N#Cc1ccc2c(CN3CCOCC3)cc(-c3ccc(C(N)=O)cc3)nc2c1` [RAGE 283], for which the Kd at ctRAGE is 1 nM. The same compound had an IC50 in experiment [1] of 2.6 nM.
The matching figures for `N#Cc1ccc2c(CN3CCOCC3)cc(-c3ccc(CN)cc3)nc2c1` [RAGE 286, 2-(4-(aminomethyl)phenyl)-4-(morpholinomethyl)quinoline-7-carbonitrile]: 20 nM and 270 nM.
`CC(=O)NCc1ccc(-c2cc(C(=O)N3CCOCC3)c3ccc(C#N)cc3n2)cc1` [RAGE 289, N-(4-(7-cyano-4-(morpholine-4-carbonyl)quinolin-2-yl)benzyl) acetamide] returned a Kd at ctRAGE of 3 nM. Besides, in experiment [1], the IC50 is 18 nM.
`N#Cc1ccc2c(CN3CCOCC3)cc(-c3ccc(C(=N)N)cc3)nc2c1` [RAGE 290] displayed an equilibrium dissociation constant (Kd) on ctRAGE of 1 nM. This compound also gave a half-maximal inhibitory concentration (IC50) in experiment [1] of 6 nM.
Take `N#Cc1ccc2c(CN3CCOCC3)cc(-c3ccc(CC(N)=O)cc3)nc2c1` [RAGE 291]: the Kd at ctRAGE is 12 nM.
Consider `CN(C)Cc1ccc(-c2cc(CN3CCOCC3)c3ccc(C#N)cc3n2)cc1` [RAGE 299], for which binding at ctRAGE was characterised by a dissociation constant (Kd) of 8 nM. In experiment [1], this compound registered an IC50 of 93 nM.
Regarding `N#Cc1ccc2c(CN3CCOCC3)cc(-c3ccc(CN4CCCC4)cc3)nc2c1` [RAGE 401], the IC50 in experiment [1] is 905 nM.
Regarding `N#Cc1ccc2c(CN3CCOCC3)cc(-c3ccc(CCN)cc3)nc2c1` [RAGE 402, 2-(4-(2-aminoethyl)phenyl)-4-(morpholinomethyl)quinoline-7-carbonitrile], binding at ctRAGE was put at a Kd of 3 nM. In addition, the IC50 in experiment [1] turned out to be 136 nM.
`N#Cc1ccc2c(CN3CCOCC3)cc(-c3ccc([C@H]4CCC(=O)N4)cc3)nc2c1` [RAGE 406R]: binding at ctRAGE was put at a Kd of 0.6 nM. This compound came in with an IC50 in experiment [1] of 1 nM. In the experiment on ob ob mice, the “% wound closure compared to vehicle-treated animals” value is given as “significantly higher wound closure”.
For the compound `N#Cc1ccc2c(CN3CCOCC3)cc(-c3ccc([C@@H]4CCC(=O)N4)cc3)nc2c1` [RAGE 406S], on ctRAGE, the equilibrium dissociation constant (Kd) worked out at 2 nM. In experiment [1], the IC50 was found to be 1160 nM.
At ctRAGE, `N#Cc1ccc2c(C(=O)N3CCOCC3)cc(-c3ccc(C4CCCN4)cc3)nc2c1` (centres unmarked) [RAGE 407] gave a Kd of 2 nM. The same compound gave an IC50 in experiment [1] of 153 nM.

For the origin of these results see patent US20260109684A1, “QUINOLINE COMPOUNDS AS MODULATORS OF RAGE ACTIVITY AND USES THEREOF” (NEW YORK UNIVERSITY, priority 2022, published 2026).
